Assay results published in patent publication US4539149A, “β-Lactam antibacterial agents” (Beecham Group p.l.c., priority 1981, dated 1985).
Values after ≈ are worked out from the molar mass of the structure shown. Counter-ions that a name gives are not always drawn.

Each molecule was assayed on P. mirabilis 889 (assay: MIC against P. mirabilis 889). Settings: P. mirabilis 889.
Type: cell-based
In the case of CC(=O)OCC1=C(C(=O)O)N2C(=O)[C@@](NC=O)(NC(=O)C(NC(N)=O)c3cccs3)[C@H]2SC1 (single isomer, unassigned) [Example 52 (Isomer 1), 7β-[2-[(Aminocarbonyl)amino]-2-(thien-2-yl)acetamido]-7α-formamidocephalosporanic acid, sodium salt (Isomer 1)], the “MIC against P. mirabilis 889” value is reported as 125 µg/mL. In the case of CC(=O)OCC1=C(C(=O)O)N2C(=O)[C@@](NC=O)(NC(=O)C(NC(N)=O)c3cccs3)[C@H]2SC1 (single isomer, unassigned) [Example 52 (Isomer 2), 7β-[2-[(Aminocarbonyl)amino]-2-(thien-2-yl)acetamido]-7α-formamidocephalosporanic acid, sodium salt (Isomer 2)], the “MIC against P. mirabilis 889” value is reported as 25 µg/mL.

Same assay, conditions: Proteus mirabilis, 889, P. mirabilis 889
Work on CCN1CCN(C(=O)NC(C(=O)N[C@]2(NC=O)C(=O)N3C(C(=O)O)=C(CSc4nnnn4C)CS[C@@H]32)c2ccc(OC(C)=O)c(OC(C)=O)c2)C(=O)C1=O (single isomer, unassigned) [Example 57 (isomer 2), 7β-[2-(3,4-Diacetoxyphenyl)-2-[(4-ethyl-2,3-dioxopiperazin-1-yl)carbonylamino]acetamido]-7α-formamido-3-[(1-methyl-1H-tetrazol-5-yl)thiomethyl]ceph-3-em-4-carboxylic acid, sodium salt, isomer 2] yielded an MIC of 0.1 µg/mL. Work on CC1(C)S[C@H]2N(C(=O)[C@@]2(NC=O)NC(=O)COc2ccccc2)[C@H]1C(=O)O [Example 1, 6α-Formamido-6β-phenoxyacetamido penicillanic acid sodium salt] yielded an MIC greater than 100 µg/mL. In the case of CC1(C)S[C@H]2N(C(=O)[C@@]2(NC=O)NC(=O)C(C(=O)O)c2ccccc2)[C@H]1C(=O)O (stereo partly drawn) [Example 2, 6α-Formamido-6β-(2-carboxy-2-phenylacetamido)penicillanic acid, di-sodium salt], the MIC is reported as 50 µg/mL. CC1(C)S[C@H]2N(C(=O)[C@@]2(NC=O)NC(=O)C(C(=O)O)c2ccsc2)[C@H]1C(=O)O (stereo partly drawn) [Example 3, 6α-Formamido-6β-[2-carboxy-2-(3-thienyl)acetamido]penicillanic acid, di-sodium salt] was tested, and the MIC was 25 µg/mL. In the case of CCN1CCN(C(=O)N[C@@H](C(=O)N[C@]2(NC=O)C(=O)N3[C@@H](C(=O)O)C(C)(C)S[C@@H]32)c2ccccc2)C(=O)C1=O [Example 4, 6α-Formamido-6β-[D-2-[(4-ethyl-2,3-dioxopiperazin-1-yl)carbonylamino]-2-phenylacetamido]penicillanic acid, sodium salt], the MIC is reported as 0.2 µg/mL. For CCN1CCN(C(=O)N[C@H](C(=O)N[C@]2(NC=O)C(=O)N3[C@@H](C(=O)O)C(C)(C)S[C@@H]32)c2ccc(O)cc2)C(=O)C1=O [Example 6, 6α-Formamido-6β-[L-2-[(4-ethyl-2,3-dioxopiperazin-1-yl)carbonylamino]-2-(4-hydroxyphenyl)acetamido]penicillanic acid, sodium salt], the MIC was 125 µg/mL. CC1(C)S[C@H]2N(C(=O)[C@@]2(NC=O)NC(=O)[C@H](NC(=O)Nc2cnc(Nc3ccccc3)nc2O)c2ccccc2)[C@H]1C(=O)O [Example 7, 6α-Formamido-6β-[D-2-(2-phenylamino-4-hydroxypyrimidin-5-ylureido)-2-phenylacetamido]penicillanic acid, di-sodium salt] showed an MIC of 5 µg/mL. In the case of CC1(C)S[C@H]2N(C(=O)[C@@]2(NC=O)NC(=O)[C@H](N)c2ccccc2)[C@H]1C(=O)O [Example 8, 6α-Formamido-6β-(D-2-amino-2-phenylacetamido)penicillanic acid], the MIC is reported as 25 µg/mL (≈ 63.7 µM). CC1(C)S[C@H]2N(C(=O)[C@@]2(NC=O)NC(=O)[C@H](N)c2ccc(O)cc2)[C@H]1C(=O)O [Example 9, 6α-Formamido-6β-[D-2-amino-2-(4-hydroxyphenyl)acetamido]penicillanic acid] gave an MIC of 50 µg/mL (≈ 122 µM). With CN(C(=O)C=Cc1ccccc1)C(=O)N[C@@H](C(=O)N[C@]1(NC=O)C(=O)N2[C@@H](C(=O)O)C(C)(C)S[C@@H]21)c1ccccc1 [Example 10, 6α-Formamido-6β-[D-2-(3-cinnamoyl-3-methylureido)-2-phenylacetamido]penicillanic acid, sodium salt] the MIC was 1 µg/mL. In the case of CC1(C)S[C@H]2N(C(=O)[C@@]2(NC=O)NC(=O)[C@H](NC(=O)N2CCNC2=O)c2ccccc2)[C@H]1C(=O)O [Example 11, 6α-Formamido-6β-[D-2-(2-oxoimidazolidin-1-ylcarbonylamino)-2-phenylacetamido]penicillanic acid sodium salt], the MIC is reported as 1 µg/mL. CC1(C)S[C@H]2N(C(=O)[C@@]2(NC=O)NC(=O)[C@H](NC(=O)N2CCN(S(C)(=O)=O)C2=O)c2ccccc2)[C@H]1C(=O)O [Example 12, 6α-Formamido-6β-[D-2-(3-methylsulphonyl-2-oxoimidazolidin-1-ylcarbonylamino)-2-penylacetamido]penicillanic acid, sodium salt] was tested, and the MIC was 0.5 µg/mL. Molecule CN(C(=O)N[C@@H](C(=O)N[C@]1(NC=O)C(=O)N2[C@@H](C(=O)O)C(C)(C)S[C@@H]21)c1ccccc1)C(=O)c1cccs1 [Example 13, 6α-Formamido-6β-[D-2-[3-methyl-3-(2-thienylcarbonyl)ureido]-2-phenylacetamido]penicillanic acid, sodium salt] has an MIC of 2.5 µg/mL. Molecule CC1(C)S[C@H]2N(C(=O)[C@@]2(NC=O)NC(=O)[C@H](NC(=O)c2cnc3ncnn3c2O)c2ccccc2)[C@H]1C(=O)O [Example 14, 6α-Formamido-6β-[D-2-(7-hydroxy-1,2,4-triazolo[2,3-a]pyrimidin-6-ylcarboxamido)-2-phenylacetamido]penicillanic acid, disodium salt] has an MIC greater than 100 µg/mL. In the case of CC1(C)S[C@H]2N(C(=O)[C@@]2(NC=O)NC(=O)[C@H](NC(=O)c2cnc(NCc3ccccc3)nc2O)c2ccccc2)[C@H]1C(=O)O [Example 15, 6α-Formamido-6β-[D-2-(2-benzylamino-4-hydroxypyrimidin-5-ylcarboxamido)-2-phenylacetamido]penicillanic acid, disodium salt], the MIC is reported as 50 µg/mL. Molecule CC1(C)S[C@H]2N(C(=O)[C@@]2(NC=O)NC(=O)[C@H](NC(=O)N2CCNC2=O)c2ccc(O)cc2)[C@H]1C(=O)O [Example 16, 6α-Formamido-6β-[D-2-(2-oxoimidazolidin-1-ylcarbonylamino)-2-(4-hydroxyphenyl)acetamido]penicillanic acid, sodium salt] has an MIC of 0.5 µg/mL. CN(C(=O)C=Cc1ccccc1)C(=O)N[C@@H](C(=O)N[C@]1(NC=O)C(=O)N2[C@@H](C(=O)O)C(C)(C)S[C@@H]21)c1ccc(O)cc1 [Example 17, 6α-Formamido-6β-[D-2-(3-cinnamoyl-3-methylureido)-2-(4-hydroxyphenyl)acetamido]penicillanic acid, sodium salt] was tested, and the MIC was 2.5 µg/mL. With CCN1CCN(C(=O)N[C@@H](C(=O)N[C@]2(NC=O)C(=O)N3[C@@H](C(=O)O)C(C)(C)S[C@@H]32)c2ccc(OC(C)=O)c(OC(C)=O)c2)C(=O)C1=O [Example 18, 6β-[D-2-[(4-Ethyl-2,3-dioxopiperazin-1-yl)carbonylamino]-2-(3,4-diacetoxyphenyl)acetamido]-6α-formamidopenicillanic acid, sodium salt] the MIC was 0.5 µg/mL. In the case of CC1(C)S[C@H]2N(C(=O)[C@@]2(NC=O)NC(=O)[C@H](NC(=O)Nc2cnc(Nc3ccc(S(N)(=O)=O)cc3)nc2O)c2ccc(O)cc2)[C@H]1C(=O)O [Example 19, 6β-[D-2-[3-[2-(4-Aminosulphonylphenyl)amino-4-hydroxypyrimidin-5-yl]ureido]-2-(4-hydroxyphenyl)acetamido]-6α-formamidopenicillanic acid, disodium salt], the MIC is reported as 0.5 µg/mL.
